Data from patent US11236086B2, “Substituted pyrrolopyridines as inhibitors of activin receptor-like kinase” (BLUEPRINT MEDICINES CORPORATION, priority 2017, dated 2022).

Assays:
[1] = target: T1, ALK2R206H (mutant ALK2, N-terminally tagged with GST) (Homo sapiens, UniProt Q04771, R206H); assay: ALK binding assay (LANTHASCREEN TR-FRET competitive binding, displacement of Kinase Tracer 178); settings: read-out: Binding Assay (IC50 class)
T1 construct: purchased Carna Bioscience or ThermoFisher 09-148 or PV6232
T1 sequence (Q04771 21-509 R206H): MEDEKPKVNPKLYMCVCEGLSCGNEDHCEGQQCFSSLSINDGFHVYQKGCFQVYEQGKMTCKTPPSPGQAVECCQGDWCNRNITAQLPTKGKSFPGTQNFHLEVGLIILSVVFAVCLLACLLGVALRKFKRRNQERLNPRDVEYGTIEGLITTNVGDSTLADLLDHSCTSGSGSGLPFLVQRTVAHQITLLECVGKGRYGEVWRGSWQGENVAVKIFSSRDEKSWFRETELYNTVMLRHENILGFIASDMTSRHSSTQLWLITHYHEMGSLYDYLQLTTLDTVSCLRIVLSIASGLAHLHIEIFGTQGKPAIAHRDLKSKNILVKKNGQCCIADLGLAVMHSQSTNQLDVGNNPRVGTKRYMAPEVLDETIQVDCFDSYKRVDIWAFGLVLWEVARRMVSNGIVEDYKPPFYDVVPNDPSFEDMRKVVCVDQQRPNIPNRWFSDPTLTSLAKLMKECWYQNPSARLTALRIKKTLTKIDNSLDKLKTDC
Method in brief: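 Competitive displacement of Kinase Tracer 178 (50 nM) from N-terminally GST-tagged mutant ALK2 R206H (2-5 nM) by compound, detected by TR-FRET with Eu-anti-GST antibody (4-10 nM). 30 min room temperature incubation, 1% DMSO final; normalized signal fitted to 4-parameter log dose response for IC50.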

[2] = target: T2, human ALK2 R206H (Homo sapiens, UniProt Q04771, R206H); assay: Cell-based ALK2-R206H cell activity assay (Smad1-Ser463/Ser465 phosphorylation by AlphaLISA in HEK293-ALK2-R206H cells); settings: phospho-Smad1 AlphaLISA, read-out: Cell Line (Cell Assay, IC50 class)
T2 construct: expressed in transfected cells; host or cells: HEK293 (ATCC CRL1573), lentivirus transduction, blasticidin selection
T2 sequence (Q04771 21-509 R206H): T1 sequence (Q04771 21-509 R206H)
Method in brief: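 IC50 comes from a 10-point curve, scaled between DMSO and 1 μM LDN193189 controls, of lysate phospho-Smad1 (Ser463/465) measured by AlphaLISA. Compounds (top 10 μM or 1 μM, 3-fold steps, duplicates) were given 2-3 h to serum-starved HEK293 cells that stably express FLAG-tagged human ALK2 R206H.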

| Structure (SMILES) | IC50 [1] [nM] | IC50 [2] [nM] |
| --- | --- | --- |
| Cn1cc(-c2[nH]c3nccc(N4CCN(C(=O)O[C@H]5C[C@H](F)C5)CC4)c3c2F)cn1 [Compound 267] | ≤ 10 | ≤ 100 |
| Cn1cc(-c2cc3c(N4CCN(C(=O)O[C@H]5CCC5(F)F)CC4)ccnc3[nH]2)cn1 [Compound 268] | ≤ 10 | ≤ 100 |
| Cn1cnc(-c2cc3c(N4CCN(C(=O)OC5CC(F)(F)C5)CC4)ccnc3[nH]2)c1 [Compound 269] | ≤ 10 | ≤ 100 |
| O=C(C1CC1)N1CCN(c2ccnc3[nH]c(-c4ccc(C5CCOC5)cc4)cc23)CC1 (centres unmarked) [Compound 270] | ≤ 10 | ≤ 100 |
| CC1(c2ccc(-c3cc4c(N5CCN(C(=O)C6CC6)CC5)ccnc4[nH]3)cc2)COC1 [Compound 271] | ≤ 10 | ≤ 100 |
| O=C(C1CC1)N1CCN(c2ccnc3[nH]c(-c4ccc(C5(O)CCC5)cc4)cc23)CC1 [Compound 272] | ≤ 10 | ≤ 100 |
| O=C(C1CC1)N1CCN(c2ccnc3[nH]c(-c4ccc(OC5CCC5)cc4)cc23)CC1 [Compound 273] | ≤ 10 | 100 to 500 |
| Cn1cnc(-c2[nH]c3nccc(N4CCN(C(=O)OC5COC5)CC4)c3c2Cl)c1 [Compound 274] | ≤ 10 | ≤ 100 |
| Cn1cc(-c2cc3c(N4CCN(C(=O)OC5COC5)CC4)ccnc3[nH]2)nc1Cl [Compound 275] | ≤ 10 | ≤ 100 |
| Cn1cc(-c2[nH]c3nccc(N4CCN(C(=O)OC5COC5)CC4)c3c2Cl)cn1 [Compound 276] | ≤ 10 | ≤ 100 |
| Cn1cc(-c2cc3c(N4CCN(C(=O)OC5COC5)CC4)ccnc3[nH]2)c(Cl)n1 [Compound 277] | ≤ 10 | ≤ 100 |
| Cn1cc(-c2cc3c(N4CCN(C(=O)[C@H]5CC[C@H](C#N)CC5)CC4)ccnc3[nH]2)cn1 [Compound 278] | ≤ 10 | ≤ 100 |
| O=C(OC1COC1)N1CCN(c2ccnc3[nH]c(-c4cnn(C(F)F)c4)cc23)CC1 [Compound 279] | ≤ 10 | ≤ 100 |
| O=C(OC1COC1)N1CCN(c2ccnc3[nH]c(-c4cn(C(F)F)cn4)cc23)CC1 [Compound 280] | ≤ 10 | ≤ 100 |
| CCOC(=O)N1CCN(c2ccnc3[nH]c(-c4cnn(S(C)(=O)=O)c4)cc23)CC1 [Compound 281] | ≤ 10 | 100 to 500 |
| CCOC(=O)N1CCN(c2ccnc3[nH]c(-c4ccc(C(C)(C)C#N)cn4)cc23)CC1 [Compound 282] | ≤ 10 | ≤ 100 |
| O=C(C1CC1)N1CCN(c2ccnc3[nH]c(-c4ccc(C5(O)COC5)cc4)cc23)CC1 [Compound 283] | ≤ 10 | 100 to 500 |

| Structure (SMILES) | IC50 [1] [nM] | IC50 [2] [nM] |
| --- | --- | --- |
| Cc1nc(-c2[nH]c3nccc(N4CCN(C(=O)OC5CCC5)CC4)c3c2C#N)cn1C [Compound 284] | ≤ 10 | ≤ 100 |
| CC#Cc1c(-c2cnn(C)c2)[nH]c2nccc(N3CCN(C(=O)OC4COC4)CC3)c12 [Compound 285] | ≤ 10 | ≤ 100 |
| COCCOc1ccc(-c2cc3c(N4CCN(C(=O)C5CC5)CC4)ccnc3[nH]2)cc1 [Compound 286] | ≤ 10 | 100 to 500 |
| C[Si](C)(O)c1ccc(-c2cc3c(N4CCN(C(=O)C5CC5)CC4)ccnc3[nH]2)cc1 [Compound 287] | ≤ 10 | 100 to 500 |
| Cc1nc(-c2[nH]c3nccc(N4CCN(C(=O)OC5COC5)CC4)c3c2C#N)cn1C [Compound 288] | ≤ 10 | ≤ 100 |
| Cn1cc(-c2[nH]c3nccc(N4CCN(C(=O)O[C@H]5CCOC5)CC4)c3c2C#N)cn1 [Compound 289] | ≤ 10 | ≤ 100 |
| CCn1cnc(-c2[nH]c3nccc(N4CCN(C(=O)OC5COC5)CC4)c3c2C#N)c1 [Compound 290] | ≤ 10 | ≤ 100 |
| Cc1nc(-c2cc3c(N4CCN(C(=O)OCC(F)F)CC4)ccnc3[nH]2)sc1C [Compound 291] | ≤ 10 | ≤ 100 |
| Cn1cc(-c2cc3c(N4CCN(C(=O)OCCC(F)(F)F)CC4)ccnc3[nH]2)cn1 [Compound 292] | ≤ 10 | 100 to 500 |
| Cc1nc(-c2[nH]c3nccc(N4CCN(C(=O)OC5CCC5)CC4)c3c2C#N)cs1 [Compound 294] | ≤ 10 | ≤ 100 |
| Cn1cc(-c2[nH]c3nccc(N4CCN(C(=O)O[C@H]5C[C@H](F)C5)CC4)c3c2C#N)cn1 [Compound 295] | ≤ 10 | ≤ 100 |
| Cn1cnc(-c2[nH]c3nccc(N4CCN(C(=O)O[C@H]5C[C@@H](F)C5)CC4)c3c2C#N)c1 [Compound 296] | ≤ 10 | ≤ 100 |
| Cn1cnc(-c2[nH]c3nccc(N4CCN(C(=O)O[C@H]5C[C@H](F)C5)CC4)c3c2C#N)c1 [Compound 297] | ≤ 10 | ≤ 100 |
| Cn1cc(-c2[nH]c3nccc(N4CCN(C(=O)[C@H]5C[C@H](C#N)C5)CC4)c3c2Cl)cn1 [Compound 299] | ≤ 10 | ≤ 100 |
| O=C(OC1COC1)N1CCN(c2ccnc3[nH]c(-c4cnn(C5COC5)c4)cc23)CC1 [Compound 300] | ≤ 10 | 100 to 500 |
| O=C(OC1COC1)N1CCN(c2ccnc3[nH]c(-c4cn(C5COC5)cn4)cc23)CC1 [Compound 301] | ≤ 10 | 100 to 500 |

Further lines, results first:

| IC50 [1] [nM] | IC50 [2] [nM] | Structure (SMILES) |
| --- | --- | --- |
| ≤ 10 | ≤ 100 | O=C(OC1COC1)N1CCN(c2ccnc3[nH]c(-c4cn5c(n4)COCC5)cc23)CC1 [Compound 302] |
| ≤ 10 | ≤ 100 | Cc1nc(-c2[nH]c3nccc(N4CCN(C(=O)OC5COC5)CC4)c3c2C#N)cs1 [Compound 303] |
| ≤ 10 | ≤ 100 | Cc1nn(C(C)C)cc1-c1cc2c(N3CCN(C(=O)OC4COC4)CC3)ccnc2[nH]1 [Compound 304] |
| ≤ 10 | 100 to 500 | Cc1c(-c2cc3c(N4CCN(C(=O)OC5COC5)CC4)ccnc3[nH]2)cnn1C(C)C [Compound 305] |
| ≤ 10 | 100 to 500 | CS(=O)(=O)c1ccc(-c2cc3c(N4CCN(C(=O)C5CC5)CC4)ccnc3[nH]2)cc1 [Compound 307] |
| ≤ 10 | ≤ 100 | Cn1cc(-c2[nH]c3nccc(N4CCN(C(=O)OCC(F)F)CC4)c3c2Cl)cn1 [Compound 308] |
| ≤ 10 | ≤ 100 | CN(C)c1nc(-c2cc3c(N4CCN(C(=O)OC5COC5)CC4)ccnc3[nH]2)cn1C [Compound 310] |
| ≤ 10 | ≤ 100 | O=C(OC1CC1)N1CCN(c2ccnc3[nH]c(-c4nc5c(s4)COCC5)cc23)CC1 [Compound 311] |
| ≤ 10 | ≤ 100 | O=C(OC1COC1)N1CCN(c2ccnc3[nH]c(-c4ncc(C5CC5)s4)cc23)CC1 [Compound 312] |
| ≤ 10 | 100 to 500 | O=C(OC1COC1)N1CCN(c2ccnc3[nH]c(-c4nc(C5CC5)cs4)cc23)CC1 [Compound 313] |
| ≤ 10 | ≤ 100 | O=C(C1CC1)N1CCN(c2ccnc3[nH]c(-c4cnn(Cc5ccccc5)c4)cc23)CC1 [Compound 315] |
| ≤ 10 | ≤ 100 | CC(C)c1cnc(-c2cc3c(N4CCN(C(=O)OC5COC5)CC4)ccnc3[nH]2)s1 [Compound 316] |
| ≤ 10 | 100 to 500 | CC(C)c1csc(-c2cc3c(N4CCN(C(=O)OC5COC5)CC4)ccnc3[nH]2)n1 [Compound 317] |
| ≤ 10 | 100 to 500 | Cn1cc(-c2[nH]c3nccc(N4CCN(C(=O)C5CC5)CC4)c3c2Br)cn1 [Compound 320] |
| ≤ 10 | ≤ 100 | Cc1nc(-c2[nH]c3nccc(N4CCN(C(=O)OCC(F)F)CC4)c3c2C#N)cn1C [Compound 321] |
| ≤ 10 | ≤ 100 | N#CC1(c2ccc(-c3cc4c(N5CCN(C(=O)C6CC6)CC5)ccnc4[nH]3)c(F)c2)CC1 [Compound 322] |
| ≤ 10 | ≤ 100 | Cc1nc(-c2cc3c(N4CCN(C(=O)O[C@H]5C[C@H](F)C5)CC4)ccnc3[nH]2)sc1C [Compound 323] |
| ≤ 10 | 100 to 500 | O=C(c1ccc(-c2cc3c(N4CCN(C(=O)C5CC5)CC4)ccnc3[nH]2)cc1)N1CCC1 [Compound 324] |
| ≤ 10 | ≤ 100 | Cc1nc(-c2cc3c(N4CCN(C(=O)OC5CC(F)(F)C5)CC4)ccnc3[nH]2)cn1C [Compound 325] |
| ≤ 10 | ≤ 100 | Cc1nc(-c2cc3c(N4CCN(C(=O)O[C@@H]5CCC5(F)F)CC4)ccnc3[nH]2)cn1C [Compound 326] |
| ≤ 10 | ≤ 100 | O=C(C1CC1)N1CCN(c2ccnc3[nH]c(-c4ccc(C5CCCOC5)cc4)cc23)CC1 (centres unmarked) [Compound 328] |
| ≤ 10 | ≤ 100 | O=C(C1CC1)N1CCN(c2ccnc3[nH]c(-c4ccc(C5(O)CCCC5)cc4)cc23)CC1 [Compound 329] |
